Experimental data from patent US20110207745A1 (priority 2009, published 2011).
“And” between values parts separate entries of the source, which are not always exact repeats. Identical values can stand only once. Counter-ions that a name gives are not always drawn.

Legend:
[1] = HPLC area %; for % Purity after 60° C./80% RH, 2 wks / % Purity after 80° C., 2 wks: 2 weeks; for % Purity after 60° C./80% RH, 4 wks / % Purity after 80° C., 4 wks: 4 weeks; for Initial Purity: before storage
Experimental: Stress Experiments. Solids are stressed under different temperature or relative humidity (RH) environments for a measured time period. Specific RH values are achieved by placing the sample inside sealed chambers containing saturated salt solutions, as known in the art. The salt solutions are selected and prepared following an ASTM standard procedure. Samples are analyzed by XRPD immediately after removal from the stress environment.
Analyses are carried out on an Agilent® model 1100 high performance liquid chromatograph using gradient elution on a reversed phase column utilizing ultraviolet (UV) detection. Approximately 25 mg of the sample is weighed accurately and dissolved in methanol/water/trifluoroacetic acid (35:65:0.05) to a volume of 50 mL. The sample solution is analysed using the conditions specified below:
The content of the drug and related substances are quantified by area (%).
Chemical Stability. The chemical stability of Form I of the mono-HCl salt of Compound A1 was assessed by stressing the material at various temperature/relative humidity/light conditions, then analyzing by HPLC.
Chemical Stability Data. The chemical stability of a sample of Form I of the sesquifumarate salt of Compound A1 was assessed by stressing the material at various temperature/relative humidity/light conditions, then analyzing by HPLC.

rat = assay: Punished responding procedure (modified Geller-Seifter conflict test); conditions: 3.5 μmol/kg by mouth
Description: Method. In the conflict test, hungry animals were trained to lever-press for food delivery in a standard operant chamber under 2 conditions. In the first condition, referred to as the unsuppressed component, food was delivered on average after 17 lever-presses were made (also called a VR17 schedule of reinforcement). In the second condition, referred to as the suppressed component and signaled by flashing lights inside the operant chamber, food was also delivered following an average of 17 lever-presses, but electric shock was additionally delivered to the floor of the cage under a separate VR17 schedule. Daily sessions consisted of 5 alternating presentations of each component type: suppressed (3 minutes in duration) and unsuppressed (2 minutes in duration). The number of lever presses emitted in the suppressed component was obviously low relative to the unsuppressed component.
Drug Administration and Preparation. […] Monday and Wednesday were washout/baseline days.
Apparatus. Standard 2-lever operant chambers were used (Med Associates). The chambers were fitted with 2 retractable response levers and a stimulus lamp over each of the 2 levers. A pellet dispenser delivered 45 mg food pellets, (Bio Serv) to a cup located inside of the chamber below and between the 2 response levers. A lamp at the top and back of the chamber served as houselights. The grid floors of the operant chambers were interfaced to shock generators and scramblers (Med Associates). All events in the chambers were controlled and monitored by a microprocessor.
Procedures. There were 2 components in the procedure: 1) an unsuppressed responding component (unpunished) with 2 minutes in duration; and 2) a suppressed responding component (punished) with 3 minutes in duration.
In the unpunished component, the houselights and both stimulus lamps over the response levers were turned on, the lever on the left-hand side of the chamber extended, and a food pellet was delivered following an average of 17 responses on the lever in the chamber (range 3 to 40 responses)—a variable-ratio 17 schedule (VR17).
In the punished component (which followed the unpunished component), the right-hand lever was extended into the chamber; the stimulus lamps and houselights were turned on and off at 1 second intervals, in succession, which served as a cue for this component; and food was available under a VR17 schedule, but was accompanied by an electrical current (0.5 second duration) that was delivered to the grid floor of the chamber under an independent VR17 schedule. The level of the current was adjusted for each individual subject until responding was reduced in the punished component to a level that was about 5% to 10% that of the unpunished component, and ranged from 0.2 mA to 0.75 mA. Unpunished and punished components were separated by 10 second time-out periods in which both response levers were retracted and all stimulus lamps turned off. 2 minute unpunished and 3 minute punished components alternated until 5 of each were completed. Daily sessions always began with the unpunished responding component. […] Several doses were tested on a given test day in different subjects. Each dose, then, was tested in different sub-set of rats.
Data Analysis. The dependent variables recorded were the rate of responding in unpunished and punished components (total responses/total time under the component) and the number of shocks delivered.

CCN(CC)C(=O)c1ccc([C@H](c2cccc(N)c2)N2CCN(Cc3ccc(F)cc3)CC2)cc1 [Amorphous Tri-HCl Salt of Compound A1, 4-{(R)-(3-aminophenyl)[4-(4-fluorobenzyl)piperazin-1-yl]methyl}-N,N-diethylbenzamide]
% Purity after 60° C./80% RH, 2 wks [1]: 93.5%
% Purity after 60° C./80% RH, 4 wks [1]: 89.7%
% Purity after 80° C., 2 wks [1]: 93.1%
% Purity after 80° C., 4 wks [1]: 91.1%
Initial Purity [1]: 97.7%

CCN(CC)C(=O)c1ccc([C@H](c2cccc(N)c2)N2CCN(Cc3ccc(F)cc3)CC2)cc1 [Phosphate Salt of Compound A1, 4-{(R)-(3-aminophenyl)[4-(4-fluorobenzyl)piperazin-1-yl]methyl}-N,N-diethylbenzamide]
% Purity after 40° C./75% RH, 2 wks [1]: 88.6%
% Purity after 40° C./75% RH, 4 wks [1]: 87.7%
% Purity after 60° C./80% RH, 2 wks [1]: 81.4%
% Purity after 60° C./80% RH, 4 wks [1]: 78.4%
% Purity after 80° C., 2 wks [1]: 86.6%
% Purity after 80° C., 4 wks [1]: 83.4%
Initial Purity [1]: 91.2%

CCN(CC)C(=O)c1ccc([C@H](c2cccc(N)c2)N2CCN(Cc3ccc(F)cc3)CC2)cc1 [Sulfate Salt of Compound A1, 4-{(R)-(3-aminophenyl)[4-(4-fluorobenzyl)piperazin-1-yl]methyl}-N,N-diethylbenzamide]
% Purity after 40° C./75% RH, 2 wks [1]: 92.6% and 88.7%
% Purity after 40° C./75% RH, 4 wks [1]: 91.2% and 87.3%
% Purity after 60° C./80% RH, 2 wks [1]: 74.1% and 80.5%
% Purity after 60° C./80% RH, 4 wks [1]: 62.3% and 80.6%
% Purity after 80° C., 2 wks [1]: 78.5% and 88.7%
% Purity after 80° C., 4 wks [1]: 67.1% and 85.7%
Initial Purity [1]: 93.3% and 94.7%

CN1C(=O)CN=C(c2ccccc2)c2cc(Cl)ccc21 [diazepam, reference compound]
level of efficacy in modified Geller-Seifter conflict model (rat): about 250%
